Experimental data as given in patent publication US9283222B2 (priority 2006, dated 2016).

Molecular target: Recombinant Human Poly(ADP-Ribose) Polymerase (PARP), PARP-1 (Homo sapiens (Human), UniProt P09874)
Details: read-out: PARP-1 (Ki); Table 1; text calls the values EC50s

Sequence of Recombinant Human Poly(ADP-Ribose) Polymerase (PARP), PARP-1 (P09874 whole entry): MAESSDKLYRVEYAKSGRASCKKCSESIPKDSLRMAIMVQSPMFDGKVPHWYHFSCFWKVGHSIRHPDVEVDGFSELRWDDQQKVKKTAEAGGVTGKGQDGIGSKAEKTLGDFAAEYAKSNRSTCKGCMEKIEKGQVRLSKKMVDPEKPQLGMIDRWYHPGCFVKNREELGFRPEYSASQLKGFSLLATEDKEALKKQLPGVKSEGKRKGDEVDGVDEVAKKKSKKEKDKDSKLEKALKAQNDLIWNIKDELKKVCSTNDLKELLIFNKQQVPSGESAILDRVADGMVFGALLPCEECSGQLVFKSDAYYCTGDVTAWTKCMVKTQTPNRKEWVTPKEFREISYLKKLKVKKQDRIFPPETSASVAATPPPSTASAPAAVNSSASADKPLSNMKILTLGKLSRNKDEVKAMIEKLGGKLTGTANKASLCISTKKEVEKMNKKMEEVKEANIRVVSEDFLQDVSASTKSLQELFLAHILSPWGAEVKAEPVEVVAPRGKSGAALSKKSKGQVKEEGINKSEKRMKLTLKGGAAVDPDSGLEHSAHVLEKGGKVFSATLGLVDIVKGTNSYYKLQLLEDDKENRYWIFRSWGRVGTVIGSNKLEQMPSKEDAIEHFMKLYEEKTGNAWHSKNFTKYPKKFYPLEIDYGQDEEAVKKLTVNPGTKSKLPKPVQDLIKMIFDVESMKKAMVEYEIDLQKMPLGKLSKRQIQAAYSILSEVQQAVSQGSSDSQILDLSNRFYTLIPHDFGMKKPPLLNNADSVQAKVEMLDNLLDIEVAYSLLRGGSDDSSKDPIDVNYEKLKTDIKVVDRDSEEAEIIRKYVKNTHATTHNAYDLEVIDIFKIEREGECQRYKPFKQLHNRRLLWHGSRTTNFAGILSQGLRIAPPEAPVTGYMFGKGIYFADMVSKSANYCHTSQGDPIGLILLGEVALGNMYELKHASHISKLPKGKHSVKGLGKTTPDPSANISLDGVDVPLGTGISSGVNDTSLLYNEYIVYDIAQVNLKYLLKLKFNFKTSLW

| Compound | Ki [nM] |
| --- | --- |
| CC1(C(=O)N2CCCN(C(=O)c3cc(Cc4n[nH]c(=O)c5c4CCCC5)ccc3F)CC2)CC1 [Example 635, 4-[4-fluoro-3-({4-[(1-methylcyclopropyl)carbonyl]-1,4-diazepan-1-yl}carbonyl)benzyl]-5,6,7,8-tetrahydrophthalazin-1(2H)-one] | 1.8 |
| Cn1cnc(C(=O)N2CCCN(C(=O)c3cc(Cc4n[nH]c(=O)c5c4CCCC5)ccc3F)CC2)c1 [Example 636, 4-[4-fluoro-3-({4-[(1-methyl-1H-imidazol-4-yl)carbonyl]-1,4-diazepan-1-yl}carbonyl)benzyl]-5,6,7,8-tetrahydrophthalazin-1(2H)-one] | 1.8 |
| Cn1cncc1C(=O)N1CCCN(C(=O)c2cc(Cc3n[nH]c(=O)c4c3CCCC4)ccc2F)CC1 [Example 637, 4-[4-fluoro-3-({4-[(1-methyl-1H-imidazol-5-yl)carbonyl]-1,4-diazepan-1-yl}carbonyl)benzyl]-5,6,7,8-tetrahydrophthalazin-1(2H)-one] | 4 |
| O=C(c1cc(Cc2n[nH]c(=O)c3c2NCCC3)ccc1F)N1CCN(C(=O)C2CCCC2)CC1 [Example 640] | 0.7 |
| O=C(c1ccc(Cl)cn1)N1CCN(C(=O)c2cc(Cc3n[nH]c(=O)c4c3NCCC4)ccc2F)CC1 [Example 641] | 1.3 |
| CC(C)n1nnc2cc(C(=O)N3CCN(C(=O)c4cc(Cc5n[nH]c(=O)c6c5NCCC6)ccc4F)CC3)ccc21 [Example 643] | 1.2 |
| CN1CCN(C2CCN(C(=O)c3cc(Cc4n[nH]c(=O)c5c4NCCC5)ccc3F)CC2)CC1 [Example 644] | 3 |
| O=C(c1ccc2ccccc2n1)N1CCN(C(=O)c2cc(Cc3n[nH]c(=O)c4c3NCCC4)ccc2F)CC1 [Example 645] | 1.5 |
| O=C(c1ccc(Cl)nc1)N1CCN(C(=O)c2cc(Cc3n[nH]c(=O)c4c3NCCC4)ccc2F)CC1 [Example 646] | 0.7 |
| CC(C)n1c(C(F)(F)F)nc2cc(C(=O)N3CCN(C(=O)c4cc(Cc5n[nH]c(=O)c6c5NCCC6)ccc4F)CC3)ccc21 [Example 647] | 1.7 |
| O=C(c1ccc(O)nc1)N1CCN(C(=O)c2cc(Cc3n[nH]c(=O)c4c3NCCC4)ccc2F)CC1 [Example 649] | 0.6 |
| O=C(c1cnc(Cl)c(O)c1)N1CCN(C(=O)c2cc(Cc3n[nH]c(=O)c4c3NCCC4)ccc2F)CC1 [Example 651] | 1.1 |
| Cc1nc2cc(C(=O)N3CCN(C(=O)c4cc(Cc5n[nH]c(=O)c6c5NCCC6)ccc4F)CC3)ccc2[nH]1 [Example 654] | 1.2 |
| O=C(c1ccc2nc[nH]c2c1)N1CCN(C(=O)c2cc(Cc3n[nH]c(=O)c4c3NCCC4)ccc2F)CC1 [Example 655] | 0.7 |
| O=C(c1cnc2ccccc2c1)N1CCN(C(=O)c2cc(Cc3n[nH]c(=O)c4c3NCCC4)ccc2F)CC1 [Example 657, 8-(4-fluoro-3-{[4-(quinolin-3-ylcarbonyl)piperazin-1-yl]carbonyl}benzyl)-2,3,4,6-tetrahydropyrido[2,3-d]pyridazin-5(1H)-one] | 0.8 |
| O=C(c1cc(Cc2n[nH]c(=O)c3c2NCCC3)ccc1F)N1CCN(C(=O)c2cccnc2Cl)CC1 [Example 658, 8-[3-({4-[(2-chloropyridin-3-yl)carbonyl]piperazin-1-yl}carbonyl)-4-fluorobenzyl]-2,3,4,6-tetrahydropyrido[2,3-d]pyridazin-5(1H)-one] | 1 |
| O=C(OCc1ccccc1)N1CCCN(C(=O)c2cc(Cc3n[nH]c(=O)c4c3NCCC4)ccc2F)CC1 [Example 659, benzyl 4-{2-fluoro-5-[(5-oxo-1,2,3,4,5,6-hexahydropyrido[2,3-d]pyridazin-8-yl)methyl]benzoyl}-1,4-diazepane-1-carboxylate] | 2.5 |
| O=C(c1ccncc1)N1CCN(C(=O)c2cc(Cc3n[nH]c(=O)c4c3NCCC4)ccc2F)CC1 [Example 660, 8-{4-fluoro-3-[(4-isonicotinoylpiperazin-1-yl)carbonyl]benzyl}-2,3,4,6-tetrahydropyrido[2,3-d]pyridazin-5(1H)-one] | 1.4 |
| O=C(c1cccnc1)N1CCN(C(=O)c2cc(Cc3n[nH]c(=O)c4c3NCCC4)ccc2F)CC1 [Example 661, 8-(4-fluoro-3-{[4-(pyridin-3-ylcarbonyl)piperazin-1-yl]carbonyl}benzyl)-2,3,4,6-tetrahydropyrido[2,3-d]pyridazin-5(1H)-one] | 1.5 |

| Compound | Ki [nM] |
| --- | --- |
| O=C(c1cnccn1)N1CCN(C(=O)c2cc(Cc3n[nH]c(=O)c4c3NCCC4)ccc2F)CC1 [Example 662, 8-(4-fluoro-3-{[4-(pyrazin-2-ylcarbonyl)piperazin-1-yl]carbonyl}benzyl)-2,3,4,6-tetrahydropyrido[2,3-d]pyridazin-5(1H)-one] | 1.5 |
| O=C(c1ccc2[nH]cnc2c1)N1CCN(C(=O)c2cc(Cc3n[nH]c(=O)c4c3NCCC4)ccc2F)CC1 [Example 663, 8-(3-{[4-(1H-benzimidazol-5-ylcarbonyl)piperazin-1-yl]carbonyl}-4-fluorobenzyl)-2,3,4,6-tetrahydropyrido[2,3-d]pyridazin-5(1H)-one] | 1 |
| O=C(c1cncnc1)N1CCN(C(=O)c2cc(Cc3n[nH]c(=O)c4c3NCCC4)ccc2F)CC1 [Example 664, 8-(4-fluoro-3-{[4-(pyrimidin-5-ylcarbonyl)piperazin-1-yl]carbonyl}benzyl)-2,3,4,6-tetrahydropyrido[2,3-d]pyridazin-5(1H)-one] | 1.3 |
| O=C(c1ccccn1)N1CCN(C(=O)c2cc(Cc3n[nH]c(=O)c4c3NCCC4)ccc2F)CC1 [Example 665, 8-(4-fluoro-3-{[4-(pyridin-2-ylcarbonyl)piperazin-1-yl]carbonyl}benzyl)-2,3,4,6-tetrahydropyrido[2,3-d]pyridazin-5(1H)-one] | 1.1 |
| CCOC(=O)N1CCN(C(=O)c2cc(Cc3n[nH]c(=O)c4c3NCCC4)ccc2F)CC1 [Example 666, ethyl 4-{2-fluoro-5-[(5-oxo-1,2,3,4,5,6-hexahydropyrido[2,3-d]pyridazin-8-yl)methyl]benzoyl}piperazine-1-carboxylate] | 1.5 |
| CC1(C)C(=O)NCCN1C(=O)c1cc(Cc2n[nH]c(=O)c3c2NCCC3)ccc1F [Example 667, 8-{3-[(2,2-dimethyl-3-oxopiperazin-1-yl)carbonyl]-4-fluorobenzyl}-2,3,4,6-tetrahydropyrido[2,3-d]pyridazin-5(1H)-one] | 20 |
| C[C@@H]1CN(C(=O)c2ccccc2)CCN1C(=O)c1cc(Cc2n[nH]c(=O)c3c2CCCC3)ccc1F [Example 668, 4-(3-{[(2R)-4-benzoyl-2-methylpiperazin-1-yl]carbonyl}-4-fluorobenzyl)-5,6,7,8-tetrahydrophthalazin-1(2H)-one] | 1.9 |
| O=C(c1cc(Cc2n[nH]c(=O)c3c2CCCC3)ccc1F)N1CCN(c2ncncn2)CC1 [Example 669, 4-(4-fluoro-3-{[4-(1,3,5-triazin-2-yl)piperazin-1-yl]carbonyl}benzyl)-5,6,7,8-tetrahydrophthalazin-1(2H)-one] | 1.2 |
| O=C(c1cscn1)N1CCN(C(=O)c2cc(Cc3n[nH]c(=O)c4c3CCCC4)ccc2F)CC1 [Example 674, 4-(4-fluoro-3-{[4-(1,3-thiazol-4-ylcarbonyl)piperazin-1-yl]carbonyl}benzyl)-5,6,7,8-tetrahydrophthalazin-1(2H)-one] | 1.1 |
| O=C1CCC(C(=O)N2CCN(C(=O)c3cc(Cc4n[nH]c(=O)c5c4CCCC5)ccc3F)CC2)N1 (stereo not shown) [Example 675, 4-[4-fluoro-3-({4-[(5-oxopyrrolidin-2-yl)carbonyl]piperazin-1-yl}carbonyl)benzyl]-5,6,7,8-tetrahydrophthalazin-1(2H)-one] | 1.2 |
| CC1(C)SCN[C@@H]1C(=O)N1CCN(C(=O)c2cc(Cc3n[nH]c(=O)c4c3CCCC4)ccc2F)CC1 [Example 677, 4-{3-[(4-{[(4R)-5,5-dimethyl-1,3-thiazolidin-4-yl]carbonyl}piperazin-1-yl)carbonyl]-4-fluorobenzyl}-5,6,7,8-tetrahydrophthalazin-1(2H)-one] | 1.5 |
| O=C(c1cc[nH]n1)N1CCN(C(=O)c2cc(Cc3n[nH]c(=O)c4c3CCCC4)ccc2F)CC1 [Example 678, 4-(4-fluoro-3-{[4-(1H-pyrazol-3-ylcarbonyl)piperazin-1-yl]carbonyl}benzyl)-5,6,7,8-tetrahydrophthalazin-1(2H)-one] | 1.1 |
| O=C(c1cnccn1)N1CCN(C(=O)c2cc(Cc3n[nH]c(=O)c4c3CCCC4)ccc2F)CC1 [Example 679, 4-(4-fluoro-3-{[4-(pyrazin-2-ylcarbonyl)piperazin-1-yl]carbonyl}benzyl)-5,6,7,8-tetrahydrophthalazin-1(2H)-one] | 1.4 |
| O=C(c1ccc2[nH]cnc2c1)N1CCN(C(=O)c2cc(Cc3n[nH]c(=O)c4c3CCCC4)ccc2F)CC1 [Example 680, 4-(3-{[4-(1H-benzimidazol-5-ylcarbonyl)piperazin-1-yl]carbonyl}-4-fluorobenzyl)-5,6,7,8-tetrahydrophthalazin-1(2H)-one] | 1.1 |
| O=C(c1ccncc1)N1CCCN(C(=O)c2cc(Cc3n[nH]c(=O)c4c3NCCC4)ccc2F)CC1 [Example 682, 8-{4-fluoro-3-[(4-isonicotinoyl-1,4-diazepan-1-yl)carbonyl]benzyl}-2,3,4,6-tetrahydropyrido[2,3-d]pyridazin-5(1H)-one] | 2.4 |
| O=C(c1cccnc1)N1CCCN(C(=O)c2cc(Cc3n[nH]c(=O)c4c3NCCC4)ccc2F)CC1 [Example 683, 8-(4-fluoro-3-{[4-(pyridin-3-ylcarbonyl)-1,4-diazepan-1-yl]carbonyl}benzyl)-2,3,4,6-tetrahydropyrido[2,3-d]pyridazin-5(1H)-one] | 2.6 |
| O=C(c1ccccn1)N1CCCN(C(=O)c2cc(Cc3n[nH]c(=O)c4c3NCCC4)ccc2F)CC1 [Example 684, 8-(4-fluoro-3-{[4-(pyridin-2-ylcarbonyl)-1,4-diazepan-1-yl]carbonyl}benzyl)-2,3,4,6-tetrahydropyrido[2,3-d]pyridazin-5(1H)-one] | 2.8 |
| O=C(c1cncnc1)N1CCCN(C(=O)c2cc(Cc3n[nH]c(=O)c4c3NCCC4)ccc2F)CC1 [Example 685, 8-(4-fluoro-3-{[4-(pyrimidin-5-ylcarbonyl)-1,4-diazepan-1-yl]carbonyl}benzyl)-2,3,4,6-tetrahydropyrido[2,3-d]pyridazin-5(1H)-one] | 2.2 |
